Where “and” joins values, the source holds several entries; their conditions need not be identical. Equal entries are not always repeated.
System: 276233-004-R-J1-PDC KRAS spheroids with HUVEC/MSC, viability
Assay: Anticancer human tumor 276233-004-R-J1-PDC patient-derived colon adenocarcinoma cell line growth inhibition [KRAS2]
Details: for viability, T/C: stronger effect = lower value; active = viability on the fitted dose curve at most 10% of control; inactive = the rest
Excerpt: Multicellular complex tumor spheroid response to RAS pathway inhibitors in combination with a targeted agents in patient-derived cell lines with oncogenic KRAS variants from multiple cancer types
A high-throughput screen of multi-cell type tumor spheroids was designed to identify active combinations of targeted small molecules and KRAS pathway inhibitors. Complex spheroids include a stromal component modeled by human endothelial cells (HUVEC) and fibroblasts modeled by human mesenchymal stem cells (MSCs). The concentration ranges selected for each drug and investigational agent were based upon clinically achievable concentrations if the clinical Cmax of the agent was known.
Compounds. The drugs and investigational agents: BI-3406 (NSC825286), BAY-293 (NSC824723), batoprotafib (TNO155; NSC825523), sotorasib (AMG 510; NSC818433), MRTX1257 (NSC819558), elimusertib (BAY 1895344; NSC800525), molibresib (GSK525762; NSC774829), temuterkib (LY3214996; NSC803410), venetoclax (NSC766270), alisertib (NSC759677), olaparib (NSC753686), talazoparib (NSC767125), erdafitinib (NSC781556), ipatasertib (NSC767898), cabozantinib (NSC761068), nintedanib (NSC756659), abemaciclib (NSC768073), docetaxel (NSC628503), trametinib (NSC758246), and sapanisertib (NSC764658) were obtained from the National Cancer Institute (NCI) Developmental Therapeutics Program Chemical Repository. The FDA-approved anticancer drug set is available from the Developmental Therapeutics Program. […] The stock solutions were prepared in dimethyl sulfoxide (DMSO, Sigma-Aldrich, St. Louis, MO, cat. D2650) at 800-fold the tested concentration and stored at -70 degrees C prior to their use. All drugs and investigational agents were tested over a range starting from a high concentration at or near the clinical Cmax and decreasing in half-log increments. If the clinical Cmax for an agent had not been determined, the highest concentration tested was 10 microM.
Cell Culture. All cells were maintained in an incubator at 37 degrees C and 5% CO2 with 95% humidity. The PDC lines were cultured according to standard operating procedures established by the NCI PDMR (https://pdmr.cancer.gov/sops/default.htm). Briefly, all PDCs were thawed and cultured in Matrigel-coated flasks prepared with a working solution of 1X Ham's F-12 nutrient mix, without supplementation (Invitrogen, Waltham, MA, cat. 11765054), 100 U/mL penicillin-streptomycin (Invitrogen, cat. 15140122), and 2.5% Matrigel (Corning Inc., Corning, NY, cat. 354248) for the first three passages. All PDCs were cultured in complete DMEM/F-12 media containing advanced DMEM/F-12 (Invitrogen, cat. 12634028), 4.9% defined fetal bovine serum, heat inactivated (HyClone Laboratories Inc., Logan, UT, cat. SH30070.03HI), 389 ng/mL hydrocortisone (Sigma-Aldrich, cat. H4001), 9.7 ng/mL human EGF recombinant protein (Invitrogen, cat. PHG0313), 23.4 microg/mL adenine (Sigma-Aldrich, cat. A2786), 97.3 U/mL penicillin-streptomycin (Invitrogen, cat. 15140122), 1.9 mM L-glutamine (Invitrogen, cat. 25030081), and 9.7 microM Y-27632 dihydrochloride (Tocris Bioscience, Bristol, United Kingdom, cat. 1254). The PDCs were cultured in complete DMEM/F12 media without 9.7 microM Y-27632 dihydrochloride for at least two passages prior to the screen. The established cell line HOP-62 was cultured in RPMI 1640 medium, HEPES (Invitrogen, cat. 22400105) with 10% defined fetal bovine serum (HyClone Laboratories Inc., cat. SH30070.03) and 2 mM L-glutamine (Invitrogen, cat. 25030081). The pooled donor HUVEC were cultured in endothelial cell growth medium 2 (PromoCell, Heidelberg, Germany, cat. C-22011) and the hMSC were cultured in mesenchymal stem cell growth medium 2 (PromoCell, cat. C-28009). For all experiments, HUVEC and hMSC were used at passages </=5, while the malignant cell lines were used at passages </=15. […]

[1] = curve of first compound, second compound 0.1 µM
[2] = curve of first compound, second compound 0.316 µM
[3] = curve of first compound, second compound 1 µM
[4] = curve of first compound, second compound 3.16 µM
[5] = second compound 0.1 µM, first compound 0.0316 µM
[6] = second compound 0.1 µM, first compound 0.1 µM
[7] = second compound 0.1 µM, first compound 0.316 µM
[8] = second compound 0.1 µM, first compound 1 µM
[9] = second compound 0.316 µM, first compound 0.0316 µM
[10] = second compound 0.316 µM, first compound 0.1 µM
[11] = second compound 0.316 µM, first compound 0.316 µM
[12] = second compound 0.316 µM, first compound 1 µM
[13] = second compound 1 µM, first compound 0.0316 µM
[14] = second compound 1 µM, first compound 0.1 µM
[15] = second compound 1 µM, first compound 0.316 µM
[16] = second compound 1 µM, first compound 1 µM
[17] = second compound 3.16 µM, first compound 0.0316 µM
[18] = second compound 3.16 µM, first compound 0.1 µM
[19] = second compound 3.16 µM, first compound 0.316 µM
[20] = second compound 3.16 µM, first compound 1 µM
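Note: cells exposed to agents for seven days before viability read.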
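Throughout, for viability, T/C: 100% = DMSO vehicle control wells and lower values mean fewer viable cells.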

CC1COCCN1c1cc(-c2ccnn2C)c2ccnc(-c3ccn[nH]3)c2n1 (stereo not drawn)
> 3160 nM and 735 nM: IC50 (curve of compound)
inactive: viability, T/C (compound 0.01 µM) 96.2% [middle of 5 runs] | viability, T/C (compound 0.1 µM) 82% [middle of 5 runs]

O=C(c1cc(Cc2n[nH]c(=O)c3ccccc23)ccc1F)N1CCN(C(=O)C2CC2)CC1
> 10000 nM: IC50 (curve of compound)
inactive: viability, T/C (compound 0.1 µM) 91.9% [middle of 5 runs] | viability, T/C (compound 0.316 µM) 84.4% [middle of 5 runs] | viability, T/C (compound 1 µM) 89.5% [middle of 5 runs]

COC(=O)c1ccc2c(C(=Nc3ccc(N(C)C(=O)CN4CCN(C)CC4)cc3)c3ccccc3)c(O)[nH]c2c1
inactive: viability, T/C (compound 0.0316 µM) 93.3% [middle of 5 runs] | viability, T/C (compound 0.1 µM) 90.3% [middle of 5 runs] | viability, T/C (compound 0.316 µM) 81.9% [middle of 5 runs] | viability, T/C (compound 1 µM) 86.2% [middle of 5 runs]
> 10000 nM: IC50 (curve of compound)

CC(C)n1nc(-c2ccc3oc(N)nc3c2)c2c(N)ncnc21
> 100 nM: IC50 (curve of compound)
inactive: viability, T/C (compound 0.000316 µM) 98.1% [middle of 5 runs] | viability, T/C (compound 0.001 µM) 86.1% [middle of 5 runs] | viability, T/C (compound 0.01 µM) 66.5% [middle of 5 runs] | viability, T/C (compound 0.0316 µM) 60.8% [middle of 5 runs] | viability, T/C (compound 0.1 µM) 59.6% [middle of 5 runs]

CCN1CCN(Cc2ccc(Nc3ncc(F)c(-c4cc(F)c5nc(C)n(C(C)C)c5c4)n3)nc2)CC1 + C=CC(=O)N1CCN(c2nc(OCC3CCCN3C)nc3c2CCN(c2cccc4cccc(C)c24)C3)CC1CC#N
59.6 nM: IC50 [4]
inactive: viability, T/C (second compound 0.0316 µM, first compound 0.00316 µM) 102% | viability, T/C (second compound 0.0316 µM, first compound 0.01 µM) 87% | viability, T/C (second compound 0.0316 µM, first compound 0.0316 µM) 87.1% | viability, T/C (second compound 0.0316 µM, first compound 0.1 µM) 69.2% | viability, T/C (second compound 0.0316 µM, first compound 0.316 µM) 95.5% | viability, T/C (second compound 0.0316 µM, first compound 1 µM) 112% | viability, T/C (second compound 0.1 µM, first compound 0.00316 µM) 109% | viability, T/C (second compound 0.1 µM, first compound 0.01 µM) 86.4% | viability, T/C [5] 86% | viability, T/C [6] 81% | viability, T/C [7] 97% | viability, T/C [8] 96.4% | viability, T/C (second compound 0.316 µM, first compound 0.00316 µM) 95.1% | viability, T/C (second compound 0.316 µM, first compound 0.01 µM) 83.7% | viability, T/C [9] 77.4% | viability, T/C [10] 86% | viability, T/C [11] 78% | viability, T/C [12] 90.7% | viability, T/C (second compound 1 µM, first compound 0.00316 µM) 81.4% | viability, T/C (second compound 1 µM, first compound 0.01 µM) 83.7% | viability, T/C [13] 96.5% | viability, T/C [14] 87.4% | viability, T/C [15] 66.2% | viability, T/C [16] 110% | viability, T/C (second compound 3.16 µM, first compound 0.00316 µM) 56.5% | viability, T/C (second compound 3.16 µM, first compound 0.01 µM) 65.8% | viability, T/C [17] 65.9% | viability, T/C [18] 39.6% | viability, T/C [19] 43.5% | viability, T/C [20] 26.5%
> 1000 nM: IC50 (curve of first compound, second compound 0.0316 µM) | IC50 [1] | IC50 [2] | IC50 [3]

Cn1nccc1Nc1nccc(-c2cc3c(s2)C(C)(C)N(CCN2CCOCC2)C3=O)n1 + COc1cc2nc(C)nc(NC(C)c3cc(N)cc(C(F)(F)F)c3)c2cc1OC1CCOC1
< 31.6 nM: IC50 (curve of first compound, second compound 10 µM)
1850 nM: IC50 [3]
inactive: viability, T/C [5] 87.1% | viability, T/C [6] 97.3% | viability, T/C [7] 76.2% | viability, T/C [8] 59.4% | viability, T/C (second compound 0.1 µM, first compound 3.16 µM) 40.8% | viability, T/C (second compound 0.1 µM, first compound 10 µM) 33.8% | viability, T/C [9] 89.2% | viability, T/C [10] 91.4% | viability, T/C [11] 79.3% | viability, T/C [12] 60% | viability, T/C (second compound 0.316 µM, first compound 3.16 µM) 42.9% | viability, T/C (second compound 0.316 µM, first compound 10 µM) 41% | viability, T/C [13] 99.7% | viability, T/C [14] 96% | viability, T/C [15] 75.5% | viability, T/C [16] 60.5% | viability, T/C (second compound 1 µM, first compound 3.16 µM) 35.9% | viability, T/C (second compound 1 µM, first compound 10 µM) 48.4% | viability, T/C [17] 107% | viability, T/C [18] 74% | viability, T/C [19] 77.9% | viability, T/C [20] 56.1% | viability, T/C (second compound 3.16 µM, first compound 3.16 µM) 42.4% | viability, T/C (second compound 3.16 µM, first compound 10 µM) 47.2% | viability, T/C (second compound 10 µM, first compound 0.0316 µM) 39.3% | viability, T/C (second compound 10 µM, first compound 0.1 µM) 41.3% | viability, T/C (second compound 10 µM, first compound 0.316 µM) 34.7% | viability, T/C (second compound 10 µM, first compound 1 µM) 27.6% | viability, T/C (second compound 10 µM, first compound 3.16 µM) 15.2%
active: viability, T/C (second compound 10 µM, first compound 10 µM) 4.25%
1720 nM: IC50 [1]
2010 nM: IC50 [2]
2720 nM: IC50 [4]
